Patent publication US9359487B2, “Plasticizers based on mixed esters of succinate” (Proviron Holding N.V., priority 2012, dated 2016)

Experiments:
Format in all cases: physicochemical
[1] = Weight loss test (volatility) of transparent plastisole PVC film at 100° C.; conditions: for Volatile: Weight difference @ 100° C. After 4 days (%) / Volatile: Weight difference @ 100° C. After 7 days (%): transparent PVC film, 50 phr plasticiser; for delta vs. ref. (weight difference after 4 days) / delta vs. ref. (weight difference after 7 days): versus DINP
Method: Their plasticising behaviour is compared in a plastisole based transparent PVC film.
(flooring type, top layer): Solvin 382NG 100 phr (obtainable from Solvay S.A., Belgium), plasticiser 50 phr, Ca/Zn stabiliser (Baerostab NT 306) 2.5 phr (obtainable from the company Baerlocher).
The transparent film so formed is subjected to amongst others a weight loss test (volatility) at 100° C. for respectively 4 and 7 days. The plasticiser efficiency is determined by means of a hardness measurement. A measure for the compatibility of the plasticiser is the transparency.

[2] = Extraction of plasticiser in water from plastisole samples; conditions: plastisol, 50 phr plasticizer; for Extractions by H2O (Weight Difference %) 1 d: after 1 day; for Extractions by H2O (Weight Difference %) 7 d: after 7 days; for Extractions by H2O (Weight Difference %) dry: after drying the sample
Method: Various plastisoles were prepared on the basis of various plasticisers set forth in Table 1, according to the following formulae:
100 phr PVC (Vestolit B7021 ultra), 50 phr Plasticiser (Table 1), 3 phr ESBO (Drapex 39) (acting as anti-oxydans), 2 phr Ca/Zn stabiliser (Mark CZ 149).
Apart from the above, the viscosity property of the plastisole solution was determined after 24 h (viscosity vs. Shear) and the thickening was determined. Apart from this the extraction of the plasticiser in water (expressed as % weight gain/weight loss) after 1 day, 7 days were determined, as well as after drying the sample.

[3] = Volatility of pure plasticiser by thermal-gravimetrical analysis; conditions: 200° C./10 min, pure compound
[4] = Volatility comparison of succinate and adipate ester (tests by the inventors); conditions: versus comparable adipate ester DEHA

CC(C)CCCCCCOC(=O)c1ccccc1C(=O)OCCCCCCC(C)C [DINP, Di-isononylphthalate]
Volatile: Weight difference @ 100° C. After 4 days (%) [1]: −2.30% | Volatile: Weight difference @ 100° C. After 7 days (%) [1]: −4.00% | Extractions by H2O (Weight Difference %) 1 d [2]: 0.8% | Extractions by H2O (Weight Difference %) 7 d [2]: 1.8% | Extractions by H2O (Weight Difference %) dry [2]: 0.7% | Volatily plasticizer (weightloss [m %]) [3]: −4.3 m %

CCCCCC(CCC)COC(=O)CCC(=O)OCC(CCC)CCCCC (centres unmarked) [DPHS, di-(2-propylheptyl)succinate]
Volatile: Weight difference @ 100° C. After 4 days (%) [1]: −11.50% | Volatile: Weight difference @ 100° C. After 7 days (%) [1]: −17.60% | delta vs. ref. (weight difference after 4 days) [1]: ×5.0 | delta vs. ref. (weight difference after 7 days) [1]: ×4.4

CCCCC(CC)COC(=O)c1ccc(C(=O)OCC(CC)CCCC)cc1 (centres unmarked) [DOTP, Di-octyltherephthalate]
Extractions by H2O (Weight Difference %) 1 d [2]: 0.8% | Extractions by H2O (Weight Difference %) 7 d [2]: 1.7% | Extractions by H2O (Weight Difference %) dry [2]: 0.7% | Volatily plasticizer (weightloss [m %]) [3]: −4.8 m %

CC(C)CCCCCCOC(=O)c1ccccc1 [INB, Isononyl Benzoate]
Extractions by H2O (Weight Difference %) 1 d [2]: 0.9% | Extractions by H2O (Weight Difference %) 7 d [2]: 1.9% | Extractions by H2O (Weight Difference %) dry [2]: 0.5% | Volatily plasticizer (weightloss [m %]) [3]: −61.7 m %

CCCCC(CC)COC(=O)CCCCC(=O)OCC(CC)CCCC (centres unmarked) [DOA, Di-octyladepate]
Extractions by H2O (Weight Difference %) 1 d [2]: 1% | Extractions by H2O (Weight Difference %) 7 d [2]: 2.1% | Extractions by H2O (Weight Difference %) dry [2]: 0.7% | Volatily plasticizer (weightloss [m %]) [3]: −18.4 m %

CCCCC(CC)COC(=O)CCC(=O)OCC(CC)CCCC (centres unmarked) [DEHSu, di-2-ethylhexyl-succinate]
volatility compared to di-2-ethylhexyl-adipate (DEHA) [4]: approximately twice as volatile

CC(C)CCCCCCOC(=O)CCC(=O)OCCCCCCC(C)C [DINS, diisononylsuccinate]
Volatile: Weight difference @ 100° C. After 7 days (%) [1]: −24.50% | delta vs. ref. (weight difference after 4 days) [1]: ×7.6 | delta vs. ref. (weight difference after 7 days) [1]: ×6.1
